The numbers were not newly measured in patent US20060292214A1, “Nanoparticulate acetaminophen formulations” (Elan Pharma International Limited, priority 2005, published 2006), which cites them from elsewhere.

`CC(=O)Nc1ccc(O)cc1` [acetaminophen, 4′-hydroxyacetanilide]: the solubility in water result is “practically insoluble in water”.
